Test results: ChEMBL document CHEMBL3885861, “Open TG-GATES”

Organism: Rattus norvegicus
Assay: Open TG-GATES - Regimen: Single
Assay type: toxicity, organism-based, Sprague-Dawley
Set-up: regimen Single, gender Male, age 6 weeks
Conditions: in vivo, po, route gavage; for TP / gamma-GTP / ALP / AST / CRE / DBIL / IP / K / LDH / Na / RALB / TBIL / TC / TG / ALT: tissue Plasma; for Bas / Eos / Fbg / Hb / Lym / MCH / MCHC / MCV / Mono / Neu / PT / RBC / Ret / APTT / WBC / Ht: tissue Blood; for KIDNEY_L / KIDNEY_R / KIDNEY_TOTAL: tissue Kidney
[1] = 30 mg/kg, 3 h, dose level Middle
[2] = 30 mg/kg, 6 h, dose level Middle
[3] = 30 mg/kg, 9 h, dose level Middle
[4] = 30 mg/kg, 24 h, dose level Middle
[5] = 100 mg/kg, 3 h, dose level High
[6] = 100 mg/kg, 6 h, dose level High
[7] = 100 mg/kg, 9 h, dose level High
[8] = 100 mg/kg, 24 h, dose level High

Cc1cnc(NC(=O)C2=C(O)c3ccccc3S(=O)(=O)N2C)s1 [MELOXICAM] gave a TP (10 mg/kg, 24 h, dose level Low) of 5.4 g/dL, a gamma-GTP (10 mg/kg, 24 h, dose level Low) of 1 IU/L and a TERMINAL_BW [1] of 226 g. The Bas [1] was 1%, the Eos [1] was 0.8% and the Fbg [1] was 212 mg/dL. The Hb [1] was 13.3 g/dL, the Lym [1] was 79.6% and the MCH [1] was 21 pg. It also gave an MCHC [1] of 33.5%, an MCV [1] of 62.7 fL and a Mono [1] of 2.4%. The Neu [1] was 16.4%, the PT [1] was 12 s and the RBC [1] was 636.4 x10_4/ul. For the same compound, the Ret [1] was 7%, the KIDNEY_L [1] was 1 g and the KIDNEY_R [1] was 1 g. It also gave a KIDNEY_TOTAL [1] of 2.1 g, an ALP [1] of 811 IU/L and an AST [1] of 65.6 IU/L. For the same compound, the CRE [1] was 0.4 mg/dL, the DBIL [1] was 0.07 mg/dL and the IP [1] was 8.4 mg/dL. For the same compound, the K [1] was 4.1 meq/L, the LDH [1] was 177.8 IU/L and the Na [1] was 140.6 meq/L. The RALB [1] was 3.2 g/dL, the TBIL [1] was 0.1 mg/dL and the TC [1] was 66 mg/dL. The TG [1] was 66 mg/dL, the TP [1] was 5.3 g/dL and the gamma-GTP [1] was 0.8 IU/L. The TERMINAL_BW [2] was 222.4 g, the Bas [2] was 0.6% and the Eos [2] was 0.8%. For the same compound, the Fbg [2] was 221.6 mg/dL, the Lym [2] was 73.6% and the MCH [2] was 21.8 pg. The MCHC [2] was 33.9%, the MCV [2] was 64.3 fL and the Mono [2] was 3.4%. The Neu [2] was 21.4%, the RBC [2] was 632.8 x10_4/ul and the Ret [2] was 7.2%. It also gave a KIDNEY_L [2] of 1 g, a KIDNEY_R [2] of 0.9 g and a KIDNEY_TOTAL [2] of 1.9 g. It also gave an ALP [2] of 775.2 IU/L, an ALT [2] of 36.2 IU/L and an AST [2] of 68.6 IU/L. The CRE [2] was 0.4 mg/dL, the DBIL [2] was 0.062 mg/dL and the IP [2] was 9.3 mg/dL. The K [2] was 3.8 meq/L, the LDH [2] was 163.2 IU/L and the Na [2] was 141.2 meq/L. For the same compound, the RALB [2] was 3.4 g/dL, the TBIL [2] was 0.1 mg/dL and the TC [2] was 70.4 mg/dL. For the same compound, the TG [2] was 61.6 mg/dL, the TP [2] was 5.5 g/dL and the gamma-GTP [2] was 1 IU/L. It also gave a TERMINAL_BW [3] of 222 g, an APTT [3] of 17.1 s and a Bas [3] of 0.4%. It also gave an Eos [3] of 0.8%, a Fbg [3] of 235 mg/dL and a Hb [3] of 13.3 g/dL. For the same compound, the Lym [3] was 72%, the MCH [3] was 21.8 pg and the MCHC [3] was 34.2%. For the same compound, the MCV [3] was 63.8 fL, the Mono [3] was 3.8% and the Neu [3] was 22.2%. The PT [3] was 12.5 s, the RBC [3] was 612.6 x10_4/ul and the Ret [3] was 7%. It also gave a WBC [3] of 110.9 x10_2/uL, a KIDNEY_L [3] of 1 g and a KIDNEY_R [3] of 1 g. For the same compound, the KIDNEY_TOTAL [3] was 2 g, the ALP [3] was 861.8 IU/L and the ALT [3] was 34 IU/L. For the same compound, the AST [3] was 62.8 IU/L, the CRE [3] was 0.4 mg/dL and the DBIL [3] was 0.06 mg/dL. For the same compound, the IP [3] was 9.6 mg/dL, the K [3] was 4.1 meq/L and the LDH [3] was 170.2 IU/L. The Na [3] was 141.8 meq/L, the RALB [3] was 3.2 g/dL and the TBIL [3] was 0.1 mg/dL. For the same compound, the TC [3] was 64 mg/dL, the TG [3] was 44.4 mg/dL and the TP [3] was 5.3 g/dL. It also gave a gamma-GTP [3] of 1 IU/L, a TERMINAL_BW [4] of 240.1 g and a Bas [4] of 0.6%. It also gave an Eos [4] of 0.8%, a Fbg [4] of 243.4 mg/dL and a Lym [4] of 68%. The MCH [4] was 21.8 pg, the MCHC [4] was 33.7% and the MCV [4] was 64.6 fL. It also gave a Mono [4] of 3.8%, a Neu [4] of 26.4% and a PT [4] of 11.6 s. For the same compound, the RBC [4] was 609 x10_4/ul, the Ret [4] was 6.8% and the WBC [4] was 132.5 x10_2/uL. For the same compound, the KIDNEY_L [4] was 1.1 g, the KIDNEY_R [4] was 1.1 g and the KIDNEY_TOTAL [4] was 2.1 g. The ALT [4] was 38.4 IU/L, the AST [4] was 69.6 IU/L and the CRE [4] was 0.4 mg/dL. The DBIL [4] was 0.098 mg/dL, the IP [4] was 7.8 mg/dL and the K [4] was 3.9 meq/L. The LDH [4] was 207 IU/L, the Na [4] was 142.8 meq/L and the RALB [4] was 3.3 g/dL. It also gave a TBIL [4] of 0.2 mg/dL, a TC [4] of 72.2 mg/dL and a TG [4] of 108 mg/dL. It also gave a TP [4] of 5.4 g/dL, a gamma-GTP [4] of 1 IU/L and a TERMINAL_BW [5] of 226.7 g. It also gave a Bas [5] of 1%, an Eos [5] of 1.4% and a Fbg [5] of 222.4 mg/dL. It also gave a Lym [5] of 75.6%, an MCH [5] of 21.7 pg and an MCHC [5] of 34%. It also gave an MCV [5] of 63.9 fL, a Mono [5] of 3.6% and a Neu [5] of 18.6%. It also gave a PT [5] of 11.8 s, an RBC [5] of 624.4 x10_4/ul and a Ret [5] of 7.1%. It also gave a WBC [5] of 99 x10_2/uL, a KIDNEY_L [5] of 1 g and a KIDNEY_R [5] of 1 g. For the same compound, the KIDNEY_TOTAL [5] was 2 g, the ALP [5] was 883 IU/L and the ALT [5] was 37.2 IU/L. It also gave an AST [5] of 68.2 IU/L, a CRE [5] of 0.4 mg/dL and a DBIL [5] of 0.078 mg/dL. The IP [5] was 8.9 mg/dL, the K [5] was 4 meq/L and the LDH [5] was 187.4 IU/L. The Na [5] was 140.6 meq/L, the RALB [5] was 3.4 g/dL and the TBIL [5] was 0.1 mg/dL. The TC [5] was 74.2 mg/dL, the TG [5] was 74.4 mg/dL and the TP [5] was 5.4 g/dL. It also gave a gamma-GTP [5] of 0.8 IU/L, a TERMINAL_BW [6] of 223.6 g and a Bas [6] of 0.4%. The Eos [6] was 1%, the Fbg [6] was 211.6 mg/dL and the Hb [6] was 13.3 g/dL. The Lym [6] was 73.4%, the MCH [6] was 21.1 pg and the MCHC [6] was 34%. It also gave an MCV [6] of 61.9 fL, a Mono [6] of 3.2% and a Neu [6] of 22.4%. For the same compound, the PT [6] was 12.1 s, the RBC [6] was 631.4 x10_4/ul and the Ret [6] was 6.7%. For the same compound, the WBC [6] was 88.1 x10_2/uL, the KIDNEY_L [6] was 1 g and the KIDNEY_R [6] was 1 g. For the same compound, the KIDNEY_TOTAL [6] was 2 g, the ALP [6] was 723.4 IU/L and the ALT [6] was 37.4 IU/L. The AST [6] was 68 IU/L, the CRE [6] was 0.3 mg/dL and the DBIL [6] was 0.068 mg/dL. For the same compound, the IP [6] was 9.5 mg/dL, the K [6] was 4.1 meq/L and the LDH [6] was 160.4 IU/L. The Na [6] was 140.4 meq/L, the RALB [6] was 3.3 g/dL and the TBIL [6] was 0.1 mg/dL. The TC [6] was 67.6 mg/dL, the TG [6] was 43 mg/dL and the TP [6] was 5.3 g/dL. For the same compound, the gamma-GTP [6] was 1 IU/L, the TERMINAL_BW [7] was 223.1 g and the APTT [7] was 17.8 s. It also gave a Bas [7] of 0.4%, an Eos [7] of 1% and a Fbg [7] of 222.6 mg/dL. For the same compound, the Hb [7] was 13.3 g/dL, the Ht [7] was 38.4% and the Lym [7] was 65.6%. The MCH [7] was 21.9 pg, the MCHC [7] was 34.5% and the MCV [7] was 63.6 fL. It also gave a Mono [7] of 4%, a Neu [7] of 28.8% and an RBC [7] of 605 x10_4/ul. It also gave a Ret [7] of 7.1%, a KIDNEY_L [7] of 1 g and a KIDNEY_R [7] of 1 g. For the same compound, the KIDNEY_TOTAL [7] was 2 g, the ALP [7] was 759 IU/L and the ALT [7] was 27.4 IU/L. It also gave an AST [7] of 61 IU/L, a CRE [7] of 0.4 mg/dL and a DBIL [7] of 0.06 mg/dL. The IP [7] was 9.6 mg/dL, the K [7] was 4.3 meq/L and the LDH [7] was 166 IU/L. The Na [7] was 141.4 meq/L, the RALB [7] was 3.2 g/dL and the TBIL [7] was 0.1 mg/dL. The TC [7] was 62 mg/dL, the TG [7] was 23.2 mg/dL and the TP [7] was 5.3 g/dL. The gamma-GTP [7] was 1 IU/L, the TERMINAL_BW [8] was 227.5 g and the Bas [8] was 0.2%. For the same compound, the Eos [8] was 0.8%, the Fbg [8] was 300.8 mg/dL and the Hb [8] was 9.5 g/dL. The Ht [8] was 28.5%, the Lym [8] was 67.4% and the MCH [8] was 20.9 pg. The MCHC [8] was 33.2%, the MCV [8] was 62.8 fL and the Mono [8] was 2.8%. The PT [8] was 11.8 s, the RBC [8] was 453.8 x10_4/ul and the Ret [8] was 8.4%. The KIDNEY_L [8] was 1.1 g, the KIDNEY_R [8] was 1.1 g and the KIDNEY_TOTAL [8] was 2.1 g. It also gave an ALP [8] of 504.8 IU/L, an ALT [8] of 26.2 IU/L and an AST [8] of 51.8 IU/L. For the same compound, the CRE [8] was 0.4 mg/dL, the DBIL [8] was 0.056 mg/dL and the IP [8] was 9.8 mg/dL. For the same compound, the K [8] was 4.3 meq/L, the LDH [8] was 159.4 IU/L and the Na [8] was 141.2 meq/L. It also gave an RALB [8] of 2.2 g/dL, a TBIL [8] of 0.1 mg/dL and a TC [8] of 58.6 mg/dL. The TG [8] was 69.2 mg/dL, the TP [8] was 3.9 g/dL and the gamma-GTP [8] was 1 IU/L.
